Where two headings read alike, the source gives them in different places.
System: CWR22RV1 cells
Assay: Inhibition of proliferation of CWR22RV1 cells (CCK-8)
Type: cell-based, human
Conditions: 6 days culture
Description: 1) CWR22RV1 cells were subcultured in cell culture medium, and the cells in good growth condition were seeded in a 96-well plate, 80 μL for each well, and the cell number in each well was 1500. The plate was incubated overnight in a 37° C., 5% CO2 cell incubator. 2) The drug was prepared as 30 mM stock solution with dimethyl sulfoxide (DMSO). Prior to use, the stock solution was diluted 3 times with DMSO, and then further diluted as 3-fold gradient to obtain 9 concentration gradients. Then, each concentration of compound was diluted 200 times with the culture solution (ensuring that the DMSO concentration in the culture system was 0.1%), and two replicate wells were set for each concentration. 20 μL of diluted compound solution was added to the cell culture well (with final concentrations of 10 μM, 3.3 μM. 1.1 μM . . . ), and the plate was gently shaken to mix. In addition, 3 negative control wells containing only cells and 3 blank control wells containing only culture medium were included (6 wells were each added 20 μL DMSO diluted 200 times with culture medium). 2. Result detection: (1) After culturing for 6 days, 10 μL CCK-8 was added to each well, and the plate was continually cultured in a 37° C., 5% CO2 cell incubator for 2.5 h. (2) The absorbance (OD value) was detected at 450 nm using a multifunctional microplate reader. (3) The data were analyzed by Dose-response-inhibition equation in the software GraphPad Prism6, and the IC50 value was obtained.

[1] = read-out: IC50 against CWR22RV1 cells
[2] = Homo sapiens, CWR22Rv1, 144 h, read-out: IC50 against CWR22RV1 cells
[3] = Homo sapiens, CWR22Rv1, 144 h, read-out: IC50 against CWR22RV1 cells (text)

Row | Compound | IC50 [1] | IC50 [2] | IC50 [3]
1 | 1-(2′,4′-dioxo-3′-(2-oxo-2-((S)-2-phenylpyrrolidin-1-yl)ethyl)-2,3-dihydrospiro[cyclopropane-indene-1,5′-oxazolidine]-5-yl)-3-methylurea [Example 325] | > 2000 nM | – | –
2 | CNC(=O)Nc1ccc2c(c1)CC[C@@]21OC(=O)N(CC(=O)N2C(c3ccc(F)cc3)CC[C@@H]2CO)C1=O (mixture of isomers) [Example 360, 1-((R)-3′-(2-((R)-2-(4-fluorophenyl)-5-(hydroxymethyl)pyrrolidin-1-yl)-2-oxoethyl)-2′,4′-dioxo-2,3-dihydrospiro[indene-1,5′-oxazolidine]-5-yl)-3-methylurea] | – | > 2000 nM | –
3 | CNC(=O)Nc1ccc2c(c1)CC[C@@]21OC(=O)N(CC(=O)N2CCCC2c2ccccc2OC)C1=O (single isomer, unassigned) [Example 338] | – | > 2000 nM | –
4 | CNC(=O)Nc1ccc2c(c1)CC[C@@]21OC(=O)N(CC(=O)N2C(c3ccc(F)c(Cl)c3)CC[C@@H]2C)C1=O (stereo in doubt) [Example 369, 1-((R)-3′-(2-((2R,5S)-2-(3-chloro-4-fluorophenyl)-5-methylpyrrolidin-1-yl)-2-oxoethyl)-2′,4′-dioxo-2,3-dihydrospiro[indene-1,5′-oxazolidine]-5-yl)-3-methylurea] | > 2000 nM | – | –
5 | CNC(=O)Nc1ccc2c(c1)CC[C@]21OC(=O)N(CC(=O)N2CCCC[C@@H]2c2ccccc2)C1=O [Example 1] | – | > 2000 nM | –
6 | CNC(=O)Nc1ccc2c(c1)CC[C@@]21OC(=O)N(CC(=O)N2CCCC[C@@H]2c2ccccc2)C1=O [Example 2] | – | > 2000 nM | –
7 | CNC(=O)Nc1ccc2c(c1)CC[C@@]21OC(=O)N(CC(=O)N2C3CCCC2CC3)C1=O [Example 3] | – | > 2000 nM | –
8 | CNC(=O)Nc1ccc2c(c1)CC[C@]21OC(=O)N(CC(=O)N2CCCC[C@H]2c2ccccc2)C1=O [Example 4] | – | > 2000 nM | –
9 | CNC(=O)Nc1ccc2c(c1)CC[C@@]21OC(=O)N(CC(=O)N2CCCC[C@H]2c2ccccc2)C1=O [Example 5, 1-((R)-2′,4′-dioxo-3′-(2-oxo-2-((S)-2-phenylpiperidin-1-yl)ethyl)-2,3-dihydrospiro[indene-1,5-oxazolidine]-5-yl)-3-methylurea] | – | > 2000 nM | –
10 | CNC(=O)Nc1ccc2c(c1)CC[C@@]21OC(=O)N(CC(=O)N2C3CCC2CC3)C1=O [Example 7, 1-((R)-3′-(2-((1S,4S)-7-azabicyclo[2.2.1]heptan-7-yl)-2-oxoethyl)-2′,4′-dioxo-2,3-dihydrospiro[indene-1,5′-oxazolidine]-5-yl)-3-methylurea] | – | > 2000 nM | –
11 | CNC(=O)Nc1ccc2c(c1)CC[C@@]21OC(=O)N(CC(=O)N2CCC[C@H]2c2ccc(F)cc2C)C1=O [Example 8, 1-((R)-3′-(2-((S)-2-(4-fluoro-2-methylphenyl)pyrrolidin-1-yl)-2-oxoethyl)-2′,4′-dioxo-2,3-dihydrospiro[indene-1,5′-oxazolidine]-5-yl)-3-methylurea] | – | 500 to 2000 nM | –
12 | CNC(=O)Nc1ccc2c(c1)CC[C@@]21OC(=O)N(CC(=O)N2C[C@@H]3C[C@H]2CN3C(=O)OC(C)(C)C)C1=O [Example 10, (1S,4S)-5-(2-((R)-5-(3-methylureido)-2′,4′-dioxo-2,3-dihydrospiro[indene-1,5′-oxazolidine]t-butyl-3′-yl)acetyl)-2,5-diazabicyclo[2.2.1]heptane-2-carboxylic Acid t-Butyl Ester] | > 2000 nM | – | –
13 | CNC(=O)Nc1ccc2c(c1)CC[C@@]21OC(=O)N(CC(=O)N2CCCC2c2ccccc2C)C1=O (stereo partly drawn) [Example 11, 1-((1R)-2′,4′-dioxo-3′-(2-oxo-2-(2-(o-tolyl)pyrrolidin-1-yl)ethyl)-2,3-dihydrospiro[indene-1,5′-oxazolidine]-5-yl)-3-methylurea] | 500 to 2000 nM | – | –
14 | CNC(=O)Nc1ccc2c(c1)CC[C@@]21OC(=O)N(CC(=O)N2CCCC3CCCCC32)C1=O (stereo partly drawn) [Example 12, 1-methyl-3-((1R)-3′-(2-(octahydroquinolin-1-(2H)-yl)-2-oxoethyl)-2′,4′-dioxo-2,3-dihydrospiro[indene-1,5′-oxazolidine]-5-yl)urea] | – | > 2000 nM | –
15 | CNC(=O)Nc1ccc2c(c1)CC[C@@]21OC(=O)N(CC(=O)N2CCCC2c2ccccc2OC(F)(F)F)C1=O (stereo partly drawn) [Example 13, 1-((1R)-2′,4′-dioxo-3′-(2-oxo-2-(2-(2-(trifluoromethoxyl)phenyl)pyrrolidin-1-yl)ethyl)-2,3-dihydrospiro[indene-1,5′-oxazolidine]-5-yl)-3-methylurea] | – | > 2000 nM | –
16 | CNC(=O)Nc1ccc2c(c1)CC[C@@]21OC(=O)N(CC(=O)N2C(c3ccc(F)cc3)CC[C@@H]2C)C1=O (stereo partly drawn) [Example 15, 1-((R)-3′-(2-((5S)-2-(4-fluorophenyl)-5-methylpyrrolidin-1-yl)-2-oxoethyl)-2′,4′-dioxo2,3-dihydrospiro[indene-1,5′-oxazolidine]-5-yl)-3-methylurea] | – | ≤ 500 nM | ≤ 500 nM

Row | Compound | IC50 [1] | IC50 [2] | IC50 [3]
17 | CNC(=O)Nc1ccc2c(c1)CCC21OC(=O)N(CC(=O)N2CC3CCC2C3)C1=O (stereo not shown) [Example 16, 1-(3′-(2-(2-azabicyclo[2.2.1]heptan-2-yl)-2-oxoethyl)-2′,4′-dioxo-2,3-dihydrospiro[indene-1,5′-oxazolidine]-5-yl)-3-methylurea] | – | > 2000 nM | –
18 | CNC(=O)Nc1ccc2c(c1)CC[C@@]21OC(=O)N(CC(=O)N2C(c3ccc(F)cc3)CC[C@H]2C)C1=O (stereo partly drawn) [Example 18, 1-((R)-3′-(2-((5R)-2-(4-fluorophenyl)-5-methylpyrrolidin-1-yl)-2-oxoethyl)-2′,4′-dioxo-2,3-dihydrospiro[indene-1,5′-oxazolidine]-5-yl)-3-methylurea] | – | ≤ 500 nM | ≤ 500 nM
19 | CNC(=O)Nc1ccc2c(c1)CC[C@@]21OC(=O)N(CC(=O)N2C(c3ccc(F)cc3)CCC2(C)C)C1=O (stereo partly drawn) [Example 39, 1-((R)-3′-(2-(5-(4-fluorophenyl)-2,2-dimethylpyrrolidin-1-yl)-2-oxoethyl)-2′,4′-dioxo-2,3-dihydrospiro[indene-1,5′-oxazolidine]-5-yl)-3-methylurea] | 500 to 2000 nM | – | –
20 | CNC(=O)Nc1ccc2c(c1)C1(CC1)CC21OC(=O)N(CC(=O)N2C(C)CCC2c2ccc(F)cc2)C1=O (stereo not shown) [Example 97, 1-(3′-(2-(2-(4-fluorophenyl)-5-methylpyrrolidin-1-yl)-2-oxoethyl)-2′,4′-dioxo-2,3-dihydrospiro[cyclopropane-1,1′-indene-1,5′-oxazolidine]-5-yl)-3-methylurea] | – | > 2000 nM | –
21 | CNC(=O)Nc1ccc2c(c1)CC[C@@]21OC(=O)N(CC(=O)N[C@]23C[C@H]4C[C@H](C[C@H](C4)C2)C3)C1=O [Example 99] | – | > 2000 nM | –
22 | CNC(=O)Nc1ccc2c(c1)CC[C@@]21OC(=O)N(CC(=O)N2CCc3ccccc3C2)C1=O [Example 100, (R)-1-(3′-(2-(3,4-dihydroisoquinolin-2(1H)-yl)-2-oxoethyl)-2′,4′-dioxo-2,3-dihydrospiro[indene 1,5′-oxazolidine]-5-yl)-3-methylurea] | – | > 2000 nM | –
23 | CNC(=O)Nc1ccc2c(c1)CC[C@@]21OC(=O)N(CC(=O)N2C[C@@H]3C[C@@H]2CO3)C1=O [Example 103] | – | > 2000 nM | –
24 | CNC(=O)Nc1ccc2c(c1)CC[C@@]21OC(=O)N(CC(=O)NC2C(C)(C)C(O)C2(C)C)C1=O (stereo partly drawn) [Example 105, (R)—N-(3-hydroxyl-2,2,4,4-tetramethylcyclobutyl)-2-(5-(3-Methylureido)-2′,4′-dioxo-2,3-dihydrospiro[indene-1,5′-oxazole]-3′-yl)acetamide] | – | > 2000 nM | –
25 | CNC(=O)Nc1ccc2c(c1)CC[C@@]21OC(=O)N(CC(=O)N2CCC2c2ccccc2)C1=O (stereo partly shown) [Example 106] | – | > 2000 nM | –
26 | CNC(=O)Nc1ccc2c(c1)CC[C@@]21OC(=O)N(CC(=O)N2CCOC[C@@H]2c2ccccc2)C1=O [Example 107] | – | > 2000 nM | –
27 | CNC(=O)Nc1ccc2c(c1)CC[C@@]21OC(=O)N(CC(=O)N2C(C(C)(C)C)OC[C@@H]2c2ccccc2)C1=O (stereo partly shown) [Example 108] | – | > 2000 nM | –
28 | CNC(=O)Nc1ccc2c(c1)CC[C@@]21OC(=O)N(CC(=O)N2CCCc3cc(-c4ccn(C)n4)c(C(F)(F)F)cc32)C1=O [Example 109, (R)-1-methyl-3-(3′-(2-(6-(1-methyl-1H-pyrazol-3-yl)-7-(trifluoromethyl)-3,4-dihydroquinolin-1-(2H)-yl)-2-oxoethyl)-2′,4′-dioxo-2,3-dihydrospiro[indene-1,5′-oxazolidine]-5-yl)urea] | – | > 2000 nM | –
29 | CNC(=O)Nc1ccc2c(c1)CC[C@@]21OC(=O)N(Cc2ncc(-c3ccccc3)[nH]2)C1=O [Example 110, (R)-1-(2′,4′-dioxo-3′-((5-phenyl-1H-imidazol-2-yl)methyl)-2,3-dihydrospiro[indene-1,5′-oxazolidine]-5-yl)-3-methylurea] | – | > 2000 nM | –
30 | CNC(=O)Nc1ccc2c(c1)CC[C@@]21OC(=O)N(CC(=O)N2CCCC2c2nccn2C)C1=O (stereo partly shown) [Example 111] | – | > 2000 nM | –
31 | CNC(=O)Nc1ccc2c(c1)CC[C@@]21OC(=O)N(CC(=O)N2CCCC2c2cccc3c2OCO3)C1=O (stereo partly shown) [Example 112] | – | > 2000 nM | –
32 | Cc1nnn(C)c1-c1ccc2c(c1)CC[C@@]21OC(=O)N(CC(=O)N2[C@@H](C)CC[C@H]2c2ccc(F)cc2)C1=O [Example 221, (R)-5-(1,4-dimethyl-1H-1,2,3-triazole-5-yl)-3′-(2-((2S,5S)-2-(4-fluorophenyl)-5-methylpyrrolidin-1-yl)-2-oxoethyl)-2,3-dihydrospiro[indene-1,5′-oxazolidine]-2′,4′-dione] | – | > 2000 nM | –
